# Measurements published in the METLIN SMRT retention time set (Domingo-Almenara et al. 2019).
# Assay: gradient 5% acetonitrile 3 min, to 50% in 2 min, to 85% in 15 min, held 3 min, 100 µL/min
# Details: column: Zorbax Extend-C18 2.1 x 50 mm; eluents: water / acetonitrile, 0.1% formic acid
# Procedure, shortened: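 The mobile phases were water and acetonitrile, each with 0.1% formic acid, pumped at 100 μL/min through a Zorbax Extend-C18 column (2.1 × 50 mm, 1.8 μm). Pure standards were injected as mixtures of ~100 molecules and detected by a quadrupole time-of-flight mass spectrometer in positive and negative ionization mode. Retention time came from computationally picked adduct peaks, each inspected by hand.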
row,Compound,RP-LC retention time [s]
1,CCn1cnc(S(=O)(=O)N2CCCC(C(=O)Nc3ccc(C)c(C)c3)C2)c1 (centres undefined),800
2,COc1ccc(CN(C)Cc2cc(=O)n3ccc(C)cc3n2)cc1OC,587
3,CC(=O)N1CCc2ccccc2C1C(=O)NCc1ccc(F)cc1 (centres undefined),762
4,O=C(Cc1csc2nc(-c3ccccc3)cn12)Nc1ccccc1,785
5,Cc1cccn2cc(C(=O)NCc3ccc(Cl)cc3)nc12,704
6,COc1ccc(NC(=O)N2CCC(c3nc(C(=O)N4CCOCC4)c(C)o3)CC2)cc1,660
7,CCS(=O)(=O)Nc1ccc(-c2noc(COc3ccccc3)n2)cc1,923
8,Cc1ccc2sc(N(Cc3ccccn3)C(=O)C3COc4ccccc4O3)nc2c1C (centres undefined),1250
9,Nc1cc(C(=O)Nc2ccccc2F)ccc1N1CC2CC(C1)c1cccc(=O)n1C2 (centres undefined),740
10,COCCn1cc(C(=O)NC2CCCC2)c2nn(-c3ccccc3)c(=O)c-2c1,843
11,COC(=O)c1nnn(-c2cc(C)cc(C)c2)c1C(=O)OC,949
12,COC1CN(c2cccc(F)c2)C12CCN(S(=O)(=O)c1cccc(F)c1)CC2 (centres undefined),1200
13,CCn1cc(-c2nc(C)c(C(=O)Nc3ccccc3)s2)c2cccnc21,965
14,CCOc1nc2ccccc2nc1N1CCCC(C(=O)Nc2cc(Cl)ccc2C)C1 (centres undefined),1310
15,CCc1noc(-c2ccnc(-n3cnc(C(=O)NCc4ccccc4)c3)c2)n1,866
16,O=C(NC1CCCCCC1)c1cccc(CN2C(=O)C3CCCN3C(=O)c3ccccc32)c1 (centres undefined),865
17,Cc1ccc(-n2nc(N3CCCC(C(=O)NCc4ccc(F)cc4)C3)ccc2=O)cc1Cl (centres undefined),929
18,CCOc1ccc(Br)cc1S(=O)(=O)Nc1ccc(-c2cn3ccc(C)nc3n2)cc1,724
19,O=C(Cn1cccc1-c1nnc(-c2ccccc2)o1)Nc1ccc(Cl)cc1,1030
20,COc1ccc(C2C(C(=O)NC(C)C)c3cc(OC)c(OC)cc3C(=O)N2C)cc1OC (centres undefined),662
21,CCOc1ccc(-c2nc(-c3ccc(NS(=O)(=O)c4cccs4)cc3)no2)cc1,1170
22,COC(=O)c1c(C)[nH]c(C(=O)N2CCCC(C(=O)N3CCN(c4ccccc4)CC3)C2)c1C (centres undefined),790

row,Compound,RP-LC retention time [s]
1,CC(C)c1noc(-c2cc(=O)n(CC(=O)NCc3ccccc3F)c3ccccc23)n1,959
2,CN(C)C(=O)c1csc(S(=O)(=O)N2CCC(C(=O)Nc3ccccc3)CC2)c1,752
3,CSc1ccc(-c2nc3cnccn3c2Nc2cccc(C(N)=O)c2)cc1,684
4,Cc1ccc2oc(C(=O)NCC(c3ccccc3)N(C)C)cc(=O)c2c1 (centres undefined),619
5,NC(=O)c1cc(-c2ccccc2)sc1NC(=O)c1cc(Cl)sc1Cl,1180
6,CC(=O)OCC(=O)[C@@]12N=C(C)O[C@@H]1C[C@H]1[C@@H]3CCC4=CC(=O)C=C[C@]4(C)[C@H]3[C@@H](O)C[C@@]12C,862
7,Cc1noc(C)c1CNC(=O)C(C)Oc1ccc(Cl)cc1 (centres undefined),811
8,COc1ccc(Cl)cc1C(=O)NCCc1c[nH]c2ccc(C)cc12,657
9,CCNC(=O)C1CCCN(c2nc3ncn(CC(=O)NCc4ccccc4Cl)c(=O)c3s2)C1 (centres undefined),670
10,CCOC(=O)c1c(C)oc2nc(C)nc(N(C)Cc3ccccc3)c12,1150
11,O=C1CCCCC(CNC(=O)C2(c3ccccc3)CC2)N1 (centres undefined),697
12,CCOc1cc2c(cc1OCC)C1C(C(=O)N3CCOCC3)c3ccccc3C(=O)N1CC2 (centres undefined),744
13,O=C(NCc1cccc(C(F)(F)F)c1)c1cn2ccccc2n1,748
14,CC(C)CNC(=O)C1CCN(c2nc3ccc(-c4cccnc4)nc3s2)CC1,640
15,CCOc1ccc(CCNC(=O)c2c(C)oc3nc(C)nc(N4CCCC4)c23)cc1,697
16,CC(C)CCNC(=O)Cn1cccc(-c2nc(-c3ccc(F)cc3)no2)c1=O,860
17,O=C(NC1CCCC1)c1ccc2c(c1)CC(=O)N2Cc1ccc(F)cc1,824
18,CCCN1C(=O)CCc2cc(NS(=O)(=O)c3cccs3)ccc21,797
19,Cc1cccc(NC(=O)CN2C(=O)CC(C)S(=O)(=O)c3ccccc32)c1C (centres undefined),789
20,CCc1sc(NC(=O)C2CCCCC2)nc1-c1ccccc1,1200
21,O=C(NCc1ccc2c(c1)OCO2)c1cn2c(n1)CSCC2,650
22,COc1ccc(NC(=O)C2CCN(c3cc(N4CCCCC4)ncn3)CC2)cc1OC,645

# More lines, now with the values ahead:
row,RP-LC retention time [s],Compound
1,904,CC(C)c1nnc(-c2coc(S(=O)(=O)N3CCCCC3C)c2)o1 (centres undefined)
2,658,Cc1ncn(CC(=O)Nc2cc(F)ccc2F)c(=O)c1C
3,1310,Cc1ccc(-c2nc(-c3ccc4oc(C)nc4c3)no2)c(C)c1
4,985,Cc1cccc(CNC(=O)C2CCN(S(=O)(=O)c3ccc4c(c3)sc(=O)n4C(C)C)CC2)c1
5,611,O=C(NCCCN1CCCC1)C1CN(C(=O)c2ccccc2)CC12CCCCC2 (centres undefined)
6,865,O=C(CCc1conc1-c1ccc(F)cc1)NCc1ccccc1
7,904,COc1ccccc1-c1nnc(-c2cc(S(=O)(=O)N(C)C)ccc2Cl)o1
8,1110,Cc1cccc(-c2nc(C3CCN(S(=O)(=O)c4ccc(F)cc4)CC3)no2)c1
9,941,CC1(C(=O)NCc2ccc(F)cc2)CCCN(C(=O)Nc2ccccc2Cl)C1 (centres undefined)
10,947,CCOC(=O)c1ccc(NC(=O)c2cc3ccccc3c(=O)s2)cc1
11,1090,Cc1cccc(-c2nc(N)n(C(=O)C(C)(C)C)n2)c1
12,601,Cc1ccc(CNC(=O)C2=CCN(Cc3ccccc3)CC2)o1
13,1160,COC1CCC12CCN(S(=O)(=O)c1ccc(C)c(Cl)c1)CC2 (centres undefined)
14,709,CCn1cc(-c2ccc(Cl)cc2)cc1C(=O)NCCCN1CCOCC1
15,792,CC1Oc2ccc(S(=O)(=O)N3CCC(C(=O)NCCc4ccccc4)CC3)cc2NC1=O (centres undefined)
16,624,Cc1noc(-c2ccc(-n3ncc(C(=O)N4CCN(c5ccccn5)CC4)c3C)nc2)n1
17,1050,COc1nc2ccccc2nc1N1CCCC(C(=O)NC(C)c2ccccc2)C1 (centres undefined)
18,721,Cc1nn(CC(=O)NCc2ccc(F)cc2Cl)c(=O)c2noc(C)c12
19,664,COc1ccc(-c2nc3cc(C)ccn3c2NC(=O)c2cc(OC)c(OC)c(OC)c2)cc1
20,639,CCC(C)NC(=O)C1CCN(S(=O)(=O)c2cn(CC)cn2)CC1 (centres undefined)
21,594,Cn1cnc(S(=O)(=O)N2CCCCC2c2nc(-c3cccnc3)n[nH]2)c1 (centres undefined)
22,698,Cc1cccc(NC(=O)Cn2cc(C(=O)N3CCCC3)c(=O)c3ccc(C)nc32)c1
23,1150,CC(C)Cc1csc(-c2csc(S(=O)(=O)NCc3cccs3)c2)n1

row,RP-LC retention time [s],Compound
1,552,Cn1c(=O)c2c(nc3n(CCN4CCOCC4)c(C(C)(C)C)cn23)n(C)c1=O
2,770,O=C(Nc1ccc(C(=O)O)c(O)c1)c1cc2ccccc2c(=O)o1
3,1020,CCOc1ccc(/C=C/C(=O)Nc2nc(-c3ccc4c(c3)N(CC)C(=O)CO4)cs2)cc1OC
4,644,Cn1cccc1CN1CCCC(COc2ccccc2C(=O)N2CCCC2)C1 (centres undefined)
5,851,CCc1cccc(NC(=O)Cn2nc3c(N(C)C4CCCCC4)nccn3c2=O)c1
6,784,COc1ccc(CNC(=O)c2cc3c(=O)n(C)c4ccccc4n3n2)c(OC)c1
7,829,COc1ccc(CNC(=O)c2nnc(-c3ccc(S(=O)(=O)N4CCOCC4)cc3)o2)cc1
8,972,CN(C)c1ccc(C(=O)Nc2cc(-c3cccs3)no2)cc1
9,1060,Cc1ccc(NC(=O)COc2cc(C(F)(F)F)c3c(C)nn(C)c3n2)c(C)c1
10,719,CCCNC(=O)c1cc(C)nc2ccc(Cl)cc12
11,821,COc1ccc(-c2cn3ccn(-c4cccc(F)c4)c(=O)c3n2)cc1
12,674,CC(C)c1c(C2CCN(C(=O)c3ccoc3)CC2)noc1N
13,978,Cc1nn(-c2ccc(-c3ccccc3)nn2)c(C)c1S(=O)(=O)NCc1ccc2c(c1)OCO2
14,619,Cc1oc(C2CCN(C(=O)Cn3cnc4c3c(=O)n(C)c(=O)n4C)CC2)nc1C(=O)N1CCCC1
15,899,CC(C)NC(=O)c1ccc(OCC2CCN(C(=O)c3ccccc3C(F)(F)F)CC2)cc1
16,829,CCn1cc(Br)c(C(=O)Nc2ccc(C(C)=O)cc2)n1
17,910,CCCNC(=O)c1cc(-c2ccccc2)cn1C
18,811,COc1cccc(CNC(=O)C2=C3CCCN3c3ccccc3S2(=O)=O)c1
19,595,O=C(CN1CCN(Cc2nc(-c3ccc(F)cc3)cs2)CC1)NCc1ccco1
20,747,CC1CCN(c2ccc(-c3cccc(NC(=O)NCc4ccccc4)c3)nn2)CC1
21,535,CCCCC(=O)N1CCN(C2CCN(CCOC)C2=O)CC1 (centres undefined)
22,948,COc1ccc(N2CC(c3noc(-c4ccc(F)c(F)c4)n3)CC2=O)cc1 (centres undefined)
